Assay results published in ChEMBL document CHEMBL5029160, “An Activity-Based Probe for Cathepsin K Imaging with Excellent Potency and Selectivity” (J Med Chem, 2021).
Active and inactive are the calls of the source. The rule behind the calls is not given here.

Tests used:
[1] = molecular target: Procathepsin L (Homo sapiens) (UniProt P07711); assay: Inhibition of human cathepsin L assessed as residual activity using Z-Phe-Arg-pNA as substrate incubated for 60 mins by fluorometric assay; parameters: concentration or dose not given beside the values
[2] = molecular target: Cathepsin S (Homo sapiens) (UniProt P25774); assay: Inhibition of human cathepsin S assessed as ratio of Kinact/Ki using Z-Phe-Val-Arg-pNA as substrate incubated for 60 mins by fluorometric assay
[3] = molecular target: Cathepsin B (Homo sapiens) (UniProt P07858); assay: Inhibition of human cathepsin B assessed as residual activity using Z-Arg-Arg-pNA as substrate incubated for 60 mins by fluorometric assay; parameters: concentration or dose not given beside the values
[4] = molecular target: T1, Cathepsin K (Homo sapiens) (UniProt P43235); assay: Inhibition of human cathepsin K assessed as ratio of Kinact/Ki using Z-Phe-Arg-pNA as substrate incubated for 60 mins by fluorometric assay
T1 sequence (whole entry): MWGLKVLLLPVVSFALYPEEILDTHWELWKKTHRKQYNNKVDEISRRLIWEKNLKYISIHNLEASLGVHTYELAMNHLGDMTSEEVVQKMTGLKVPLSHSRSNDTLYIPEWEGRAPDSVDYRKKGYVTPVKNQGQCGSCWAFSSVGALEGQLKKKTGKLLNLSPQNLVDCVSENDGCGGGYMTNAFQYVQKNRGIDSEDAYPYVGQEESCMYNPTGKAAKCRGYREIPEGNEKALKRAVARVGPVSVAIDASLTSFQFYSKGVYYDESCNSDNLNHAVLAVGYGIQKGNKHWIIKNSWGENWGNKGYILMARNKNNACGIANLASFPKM

[5] = molecular target: Cathepsin S (Homo sapiens) (UniProt P25774); assay: Inhibition of human cathepsin S assessed as residual activity using Z-Phe-Val-Arg-pNA as substrate incubated for 60 mins by fluorometric assay
[6] = molecular target: Cathepsin B (Homo sapiens) (UniProt P07858); assay: Inhibition of human cathepsin B assessed as ratio of Kinact/Ki using Z-Arg-Arg-pNA as substrate incubated for 60 mins by fluorometric assay
[7] = molecular target: Procathepsin L (Homo sapiens) (UniProt P07711); assay: Inhibition of human cathepsin L assessed as ratio of Kinact/Ki using Z-Phe-Arg-pNA as substrate incubated for 60 mins by fluorometric assay
[8] = molecular target: T1, Cathepsin K (Homo sapiens); assay: Inhibition of recombinant human Cathepsin K at 5 uM using Z-Phe-Arg-pNA as substrate incubated for 1 hr in presence of HEK293 cell lysate by SDS-PAGE; assay type: subcellular
[9] = molecular target: T1, Cathepsin K (Homo sapiens); assay: Binding affinity to Cathepsin K in human U2OS cells at 1 uM measured after 16 hrs by SDS-PAGE; assay type: cell-based
[10] = molecular target: T1, Cathepsin K (Homo sapiens); assay: Binding affinity to recombinant human Cathepsin K at 5 uM pretreated with E64/K11777 pan-cathepsin inhibitor s for 15 mins followed by compound addition and measured after 1 hr by SDS-PAGE; conditions: time 75.0 min
[11] = molecular target: T1, Cathepsin K (Homo sapiens); assay: Binding affinity to Cathepsin K in human U2OS cells at 1 uM measured after 24 hrs by SDS-PAGE; assay type: cell-based
[12] = Drug uptake in human U2OS cells […] at 1 uM after 16 hrs by LysoTracker staining based fluorescence microscopy; assay type: ADME, subcellular
[13] = molecular target: T1, Cathepsin K (Homo sapiens); assay: Binding affinity to Cathepsin K in human U2OS cells at 1 uM measured after 4 hrs by SDS-PAGE; assay type: cell-based
[14] = molecular target: T1, Cathepsin K (Homo sapiens); assay: Binding affinity to Cathepsin K in human U2OS cells at 1 uM pretreated with E-64d for 1 hr followed by compound addition and measured after 24 hrs by SDS-PAGE; assay type: cell-based

Sequence of Cathepsin S (Homo sapiens) (P25774 115-331 limits assumed): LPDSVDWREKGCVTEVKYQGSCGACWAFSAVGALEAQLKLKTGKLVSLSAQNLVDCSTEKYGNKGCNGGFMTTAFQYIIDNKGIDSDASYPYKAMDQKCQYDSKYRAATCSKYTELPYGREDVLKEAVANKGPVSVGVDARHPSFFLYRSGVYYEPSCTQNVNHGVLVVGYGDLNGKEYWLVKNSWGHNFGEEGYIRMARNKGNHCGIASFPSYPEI
Sequence of Procathepsin L (Homo sapiens) (P07711 114-333 limits assumed): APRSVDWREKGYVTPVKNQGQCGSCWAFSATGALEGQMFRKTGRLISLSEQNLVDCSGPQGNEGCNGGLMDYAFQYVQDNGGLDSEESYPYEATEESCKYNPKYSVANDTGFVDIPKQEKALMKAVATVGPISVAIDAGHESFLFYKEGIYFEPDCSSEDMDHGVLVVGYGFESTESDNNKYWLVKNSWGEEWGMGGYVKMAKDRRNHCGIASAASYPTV

Compound	Activity [1]	Ratio [2]	Activity [3]	Ratio [4]	Activity [5]	Ratio [6]	Ratio [7]	inhibition [8]	Activity [9]	Activity [10]	Activity [11]	Drug uptake [12]	Activity [13]	Activity [14]
CCCC[C@H](NC(=O)CCCC[N+]1=C(/C=C/C=C/C=C2/N(C)c3ccccc3C2(C)C)C(C)(C)c2ccccc21)C(=O)N[C@@H](CC(C)C)C(=O)NC/C=C/C(=O)N(Cc1ccccc1)Cc1ccccc1	91%	556 M⁻¹ s⁻¹	96%	17900 M⁻¹ s⁻¹										
CCCC[C@H](NC(=O)OC(C)(C)C)C(=O)N[C@@H](CC(C)C)C(=O)NC/C=C/C(=O)N(Cc1ccccc1)Cc1ccccc1	76%	485 M⁻¹ s⁻¹	91%	6440 M⁻¹ s⁻¹										
CC(C)C[C@H](NC(=O)CCCC[N+]1=C(/C=C/C=C/C=C2/N(C)c3ccccc3C2(C)C)C(C)(C)c2ccccc21)C(=O)NC/C=C/C(=O)N(Cc1ccccc1)Cc1ccccc1.[Cl-]	89%	505 M⁻¹ s⁻¹	96%	35300 M⁻¹ s⁻¹				Active	Active	inactive	Active	Active	Active	inactive

Continued, values first:

Activity [1]	Ratio [2]	Activity [3]	Ratio [4]	Activity [5]	Ratio [6]	Ratio [7]	inhibition [8]	Activity [9]	Activity [10]	Activity [11]	Drug uptake [12]	Activity [13]	Activity [14]	Compound
89%		96%	9550 M⁻¹ s⁻¹	80%	365 M⁻¹ s⁻¹	2820 M⁻¹ s⁻¹								CC(C)C[C@H](NC(=O)c1cc2cc3c4c(c2oc1=O)CCCN4CCC3)C(=O)NC/C=C/C(=O)N(Cc1ccccc1)Cc1ccccc1
	1510 M⁻¹ s⁻¹		84200 M⁻¹ s⁻¹											CC(C)C[C@H](NC(=O)c1ccc(-c2cc3cc4c5c(c3oc2=O)CCCN5CCC4)cc1)C(=O)NC/C=C/C(=O)N(Cc1ccccc1)Cc1ccccc1
83%	291 M⁻¹ s⁻¹	91%	10600 M⁻¹ s⁻¹											CC(C)C[C@H](NC(=O)OC(C)(C)C)C(=O)NC/C=C/C(=O)N(Cc1ccccc1)Cc1ccccc1
